Reference: patent US8103455B2, “Method of assessing the proliferation or differentiation behaviour of a population of target cells in a biological system” (Medical Research Council, priority 2006, dated 2012)

What was measured:
Format in all cases: in vivo, mouse
[1] = system: mitotic spindles of tail IFE; test: Analysis of mitotic spindle orientation in DAPI stained epidermal wholemounts; settings: ATRA treatment, topical (3 months per figure legend)
Experimental: (§1) All trans retinoic acid (Sigma) in ethanol, propanediol 70:30 was applied topically to tail skin and shaved back skin (0.5 ml each) 5 days a week for 3 months at 0.33 mM or daily for 2 weeks at 1 mM.
(§2) Two protocols were used: (1) Mice were induced and after a three month interval treated with either 0.33 mM all trans retinoic acid (ATRA) or vehicle alone for a further 3 months. (2) Mice were treated with 1 mM all trans retinoic acid (ATRA) or vehicle alone for 2 weeks, beginning immediately after induction.

[2] = system: epidermal progenitor cells (EPC) of tail epidermis; test: Clone size distribution of EYFP-labelled epidermal progenitor cell clones after topical retinoid treatment, fitted to the model
Experimental: All animal experiments were conducted as specified by Home Office Project License. The generation of AhcreERT and R26EYFP/EYFP mice has been described previously^15,16. […] Epidermal wholemounts were prepared as described^14. For analysis of back epidermis, 60 μm cryosections were used.
(§3) Clone size was determined by Z stack confocal imaging of at least 50 clones containing at least one basal cell in each mouse at each time point. […] The percentage of Ki67 positive cells was determined by imaging at least 1500 basal cells in multiple fields from at least 3 mice.
as §1, §2

basal cells of tail IFE = test: Proliferation rate of basal cells by Ki67 staining; settings: ATRA treated mice, topical; controls 16.5+/-2.2%
Experimental: as §3, §1, §2

For `CC1=C(/C=C/C(C)=C/C=C/C(C)=C/C(=O)O)C(C)(C)CCC1` [ATRA, all trans retinoic acid], the “orientation of mitotic spindles” value [1] was “did not alter the orientation of mitotic spindles”, the “AD (asymmetric division) rate from fit of model to two cell clone distribution” value ([2]; at two weeks, both protocols, unchanged from wildtype) was 84% and the clone size ([2]; both protocols: 0.33 mM for 3 months starting 3 months after induction, 1 mM for 2 weeks from induction, versus vehicle) was “increase substantially”. The “EPC division rate, factor of increase” value ([2]; fit of model to two cell clone distribution at two weeks, vehicle factor 1.4) was 22 and the “proliferation rate assessed by Ki67 staining (mean+/-sem)” value (basal cells of tail IFE) was 57.0+/−3.7%.
